Experimental data as given in patent US20240000878A1 (priority 2022, published 2024).
Converted amounts (≈) assume the structure as drawn. “And” between values parts separate entries of the source, which are not always exact repeats. Equal values may be shown once. Where a name gives a salt, the structure may show the parent alone.

How the values were obtained:
Test in all cases: microbe, parasite or virus in culture
Format in all cases: cell-based
[1] = tested on: SARS-CoV-2 strain USA/PHC658/2021 (B.1.617.2; delta); settings: for LRV (log reduction value): average reduction of virus vs average virus control
[2] = tested on: Respiratory Syncytial Virus (RSV) strain A2; settings: for LRV (log reduction value): average reduction of virus vs average virus control; for antiviral activity against RSV (in words): summary of Table 2
[3] = tested on: Influenza A/CA/07/09 (H1N1); settings: for LRV (log reduction value): average reduction of virus vs average virus control

## OC[C@@H](O)[C@@H](O)[C@H](O)[C@@H](O)CO [Sorbitol]
[1]; concentration 5 %
  Log10 CCID50 virus per 0.2 mL: 1.50 and 1.67
[1]; concentration 5 %, day 6
  LRV (log reduction value): 3.5
[2]; concentration 5 %
  Log10 CCID50 virus per 0.2 mL: 2.00
[2]; concentration 5 %, day 5
  LRV (log reduction value): 2.49
[2]
  antiviral activity against RSV (in words): antiviral activity
[3]; concentration 5 %, day 3
  LRV (log reduction value): 1.47

## OC[C@@H](O)[C@@H](O)CO [Erythritol]
[1]; concentration 5 %, day 6
  LRV (log reduction value): 3.29
[2]; concentration 5 %, day 5
  LRV (log reduction value): 1.84
[3]; concentration 5 %, day 3
  LRV (log reduction value): 3.17
[3]; summary of Table 1
  antiviral activity against H1N1 (in words): showed antiviral activity

## NC(=O)c1ncn([C@@H]2O[C@H](CO)[C@@H](O)[C@H]2O)n1 [Ribavirin, reference compound]
[2]; concentration 100 μg/ml
  Log10 CCID50 virus per 0.2 mL: 1.30
[2]; human respiratory syncytial virus, 120 h, 90% effective concentration (reduce virus yield by 1 log10), regression analysis, day 5
  EC90: 4.6 µg/mL (≈ 18.8 µM)
[2]; with the EC90, day 5
  SI: SI >22
[3]; Influenza A virus, H1N1, 72 h
  EC90: 3.1 µg/mL (≈ 12.7 µM)
[3]; concentration 100 μg/ml
  Log10 CCID50 virus per 0.2 mL: 0.67
[3]; with the EC90, day 3
  SI: SI >32

## OC[C@@H](O)[C@H](O)[C@@H](O)CO [Xylitol]
[1]; concentration 5 %, day 6
  LRV (log reduction value): 3.84
[2]; concentration 5 %, day 5
  LRV (log reduction value): 2.65
[2]
  antiviral activity against RSV (in words): antiviral activity
[3]; concentration 5 %
  Log10 CCID50 virus per 0.2 mL: 6.00
[3]; concentration 5 %, day 3
  LRV (log reduction value): 1.27

## CN(C)CCC(c1ccc(Cl)cc1)c1ccccn1 (centres unmarked) [Chlorpheniramine Maleate, reference compound]
[1]; concentration 1 %
  Log10 CCID50 virus per 0.2 mL: 2.30 and 2.50
[1]; concentration 1 %, day 6
  LRV (log reduction value): 2.69
[2]; concentration 1 %
  Log10 CCID50 virus per 0.2 mL: 1.50
[2]; concentration 1 %, day 5
  LRV (log reduction value): 2.99
[3]; concentration 1 %, day 3
  LRV (log reduction value): 6.02

## CCC(CC)COC(=O)[C@H](C)N[P@](=O)(OC[C@H]1O[C@@](C#N)(c2ccc3c(N)ncnn23)[C@H](O)[C@@H]1O)Oc1ccccc1 [Remdesivir]
[1]; Severe acute respiratory syndrome coronavirus 2, 144 h
  EC90: 0.12 µg/mL (≈ 0.199 µM)
[1]; concentration 5 μg/ml
  Log10 CCID50 virus per 0.2 mL: 0.67
[1]; with the EC90, day 6
  SI: SI >42
